Results on 20 compounds are retold here after patent US20230257351A1, “SUBSTITUTED N-[…] HAVING P2X4 RECEPTOR ANTAGONISTIC ACTIVITY” (Bayer Aktiengesellschaft, priority 2020, published 2023).

One test concerns the target T1, human P2X4 (Homo sapiens, UniProt Q99571).
T1 construct: expressed in transfected cells
T1 sequence (Q99571 1-388): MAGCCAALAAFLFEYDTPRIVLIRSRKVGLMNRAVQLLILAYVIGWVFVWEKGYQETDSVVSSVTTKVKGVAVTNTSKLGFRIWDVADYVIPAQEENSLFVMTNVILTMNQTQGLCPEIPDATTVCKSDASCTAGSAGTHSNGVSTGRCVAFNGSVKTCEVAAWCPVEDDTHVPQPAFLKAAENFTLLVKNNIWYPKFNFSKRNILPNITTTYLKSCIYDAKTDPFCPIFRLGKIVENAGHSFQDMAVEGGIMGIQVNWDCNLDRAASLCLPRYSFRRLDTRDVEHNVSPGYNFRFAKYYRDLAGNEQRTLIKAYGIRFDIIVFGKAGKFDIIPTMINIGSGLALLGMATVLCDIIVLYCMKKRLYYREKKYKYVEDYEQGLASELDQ
Kind of test: Human P2X4 HEK Cell FLIPR Assay. The format is cell-based. To be noted: HEK293 stably expressing human P2X4, agonist Bz-ATP 3 μM (EC80); for IC50: read-out: Human P2X4 HEK Cells (FLIPR Assay) avg IC50. Put shortly: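 Compounds were preincubated 30 min at room temperature on Fluo8-AM-loaded HEK293 cells stably expressing human P2X4. The response was the calcium fluorescence rise on Bz-ATP addition.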

A further test concerns the target T2, rat P2X4 (Rattus norvegicus, UniProt P51577).
T2 construct: expressed in transfected cells
T2 sequence (P51577 1-388): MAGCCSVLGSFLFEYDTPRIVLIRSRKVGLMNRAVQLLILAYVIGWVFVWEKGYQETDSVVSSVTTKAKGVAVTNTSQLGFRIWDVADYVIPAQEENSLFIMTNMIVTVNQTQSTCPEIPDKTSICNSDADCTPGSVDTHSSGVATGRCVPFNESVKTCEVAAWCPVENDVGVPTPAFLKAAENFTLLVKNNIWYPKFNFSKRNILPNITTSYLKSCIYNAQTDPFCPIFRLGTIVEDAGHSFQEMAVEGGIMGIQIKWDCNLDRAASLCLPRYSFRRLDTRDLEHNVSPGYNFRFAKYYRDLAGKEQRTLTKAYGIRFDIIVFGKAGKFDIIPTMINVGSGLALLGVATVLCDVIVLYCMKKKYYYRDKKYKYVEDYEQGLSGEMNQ
In words: FLIPR Method for Rat P2X4 1321N1 Astrocytoma Cells. The class given is cell-based. To be noted: 1321N1 stably expressing rat P2X4; agonist MgATP 5 μM (EC80). How it is done: Compounds were tested on a 1321N1 cell line stably expressing rat P2X4. Cells were cultured on collagen-I-coated 384-well plates at a density of 10,000 cells/well and incubated overnight at 37° C., 5% CO2. P2X4 function was assessed by measuring intracellular calcium fluxes caused by Magnesium-ATP (MgATP) using the calcium-chelating dye Fluo8-AM (Molecular Devices) with the Fluorescent Imaging Plate Reader Tetra (FLIPR^Tetra; Molecular Devices CA). On the day of the assay, the medium was removed and the cells were incubated for 30 minutes at 37° C. and 5% CO2 in 30 μl of dye buffer (Hank's balanced salt solution, 10 mM HEPES, 1.8 mM CaCl2, 1 mM MgCl2, 2 mM probenecid, 5 mM D-glucose monohydrate, 5 μM Fluo8-AM, pH=7.4).
Compounds diluted in probenecid buffer (Hank's balanced salt solution, 10 mM HEPES, 1.8 mM CaCl2, 1 mM MgCl2, 2 mM probenecid, 5 mM D-glucose monohydrate, pH=7.4) at ten concentrations ranging from 25 μM to 1 nM (final concentration) were dispensed and incubated for 30 minutes at room temperature. The agonist, MgATP (Sigma-Aldrich Chemie GmbH, DE), was added at a final concentration of 5 μM, representing the EC80 routinely determined. The final assay volume was 50 μl and final DMSO concentration was 0.5%.
The fluorescence intensity reflecting intracellular calcium changes was recorded before and after MgATP addition, at an excitation and emission wavelengths of 470-495 nm and 515-575 nm respectively.
The compounds were tested in triplicates and fluorescence intensity raw data normalized to the agonist control and fitted to the four-parameter logistic equation:
Y=Bottom+(Top−Bottom)/(1+10^((Log IC50−X)*HillSlope))
Assay plate acceptance was based on the signal window (S/B)[…] and the reference compound pIC50 within ±[…] the mean of historic pIC50 of the compound. Failure to meet two of the three criteria determined exclusion of the plate's results. In Table 10 below the results for the assays are reported

What is called IC50 is the concentration needed to halve the response being measured. Turning to `CC(=O)N(c1ccc(F)c(F)c1)c1cc(NC(=O)Cc2ccccc2Cl)ccn1` [Example 1, N-{4-[2-(2-chlorophenyl)acetamido]pyridin-2-yl}-N-(3,4-difluorophenyl)acetamide], at human P2X4, the “Human P2X4 HEK Cells (FLIPR Assay) avg Efficacy” value (shortened to “Human P2X4 HEK Cells”) is 89% and the IC50 was determined as 224 nM. For the same compound, on rat P2X4, the IC50 stood at 96.7 nM and the “Rat P2X4 1321N1 Astrocytoma Cells (FLIPR Assay) avg Efficacy” value (“Rat P2X4 1321N1 Astrocytoma Cells” below) came out at 82%.
Regarding `CC(=O)N(c1cccc(C(F)F)c1)c1cc(NC(=O)Cc2cccc(F)c2Cl)ccn1` [Example 4, N-{4-[2-(2-chloro-3-fluorophenyl)acetamido]pyridin-2-yl}-N-[3-(difluoromethyl)phenyl]acetamide], at human P2X4, the “Human P2X4 HEK Cells” value was determined as 100% and the IC50 turned out to be 397 nM. Further, on rat P2X4, the IC50 is 855 nM and the “Rat P2X4 1321N1 Astrocytoma Cells” value is on record as 100%.
With `CC(=O)N(c1cccc(C(F)F)c1)c1cc(NC(=O)Cc2c(Cl)cccc2Cl)ccn1` [Example 5, N-{4-[2-(2,6-dichlorophenyl)acetamido]pyridin-2-yl}-N-[3-(difluoromethyl)phenyl]acetamide], at human P2X4, the “Human P2X4 HEK Cells” value is recorded as 102% and the IC50 was determined as 386 nM. Moreover, on rat P2X4, the IC50 turned out to be 440 nM and the “Rat P2X4 1321N1 Astrocytoma Cells” value is recorded as 100%.
With `CC(=O)N(c1cccc(C#N)c1)c1cc(NC(=O)Cc2ccccc2Cl)ccn1` [Example 13, N-{4-[2-(2-chlorophenyl)acetamido]pyridin-2-yl}-N-(3-cyanophenyl)acetamide], on human P2X4, the “Human P2X4 HEK Cells” value stood at 96% and the IC50 worked out at 289 nM. Besides, on rat P2X4, the IC50 was 790 nM and the “Rat P2X4 1321N1 Astrocytoma Cells” value came out at 93%.
For `CC(=O)N(c1cccc(C#N)c1)c1cc(NC(=O)Cc2c(Cl)cccc2Cl)ccn1` [Example 14, N-(3-cyanophenyl)-N-{4-[2-(2,6-dichlorophenyl)acetamido]pyridin-2-yl)acetamide] the same measures were 100%, 243 nM, 201 nM and 98%.
`CC(=O)N(c1cccc(C#N)c1)c1cc(NC(=O)Cc2c(F)cccc2Cl)ccn1` [Example 15, N-{4-[2-(2-chloro-6-fluorophenyl)acetamido]pyridin-2-yl}-N-(3-cyanophenyl)acetamide]: at human P2X4, the “Human P2X4 HEK Cells” value is listed as 94% and the IC50 worked out at 408 nM. In addition, at rat P2X4, the IC50 was 441 nM and the “Rat P2X4 1321N1 Astrocytoma Cells” value worked out at 88%.
Turning to `CC(=O)N(c1cccc(F)c1)c1cc(NC(=O)Cc2cccc(F)c2Cl)cnn1` [Example 195, N-{5-[2-(2-chloro-3-fluorophenyl)acetamido]pyridazin-3-yl}-N-(3-fluorophenyl)acetamide], on human P2X4, the “Human P2X4 HEK Cells” value is 95% and the IC50 came to 486 nM.
For `CC(=O)N(c1cccc(F)c1)c1cc(NC(=O)Cc2ccccc2Cl)cnn1` [Example 196, N-{5-[2-(2-chlorophenyl)acetamido]pyridazin-3-yl}-N-(3-fluorophenyl)acetamide], at human P2X4, the “Human P2X4 HEK Cells” value stood at 94% and the IC50 came out at 546 nM.
Turning to `CC(=O)N(c1cccc(F)c1)c1cc(NC(=O)Cc2c(F)cccc2Cl)cnn1` [Example 197, N-{5-[2-(2-chloro-6-fluorophenyl)acetamido]pyridazin-3-yl}-N-(3-fluorophenyl)acetamide], at human P2X4, the “Human P2X4 HEK Cells” value was determined as 93% and the IC50 stood at 674 nM.
With `CC(=O)N(c1cccc(F)c1)c1cc(NC(=O)Cc2ccc(F)cc2Cl)cnn1` [Example 198, N-{5-[2-(2-chloro-4-fluorophenyl)acetamido]pyridazin-3-yl}-N-(3-fluorophenyl)acetamide], at human P2X4, the “Human P2X4 HEK Cells” value was determined as 96% and the IC50 was determined as 943 nM.
With `CC(=O)N(c1ccc(F)c(F)c1)c1cc(NC(=O)Cc2ccccc2Cl)cnn1` [Example 199, N-{5-[2-(2-chlorophenyl)acetamido]pyridazin-3-yl}-N-(3,4-difluorophenyl)acetamide], at human P2X4, the “Human P2X4 HEK Cells” value stood at 86% and the IC50 was found to be 447 nM.
Turning to `CC(=O)N(c1ccc(F)c(F)c1)c1cc(NC(=O)Cc2c(Cl)cccc2Cl)cnn1` [Example 200, N-{5-[2-(2,6-dichlorophenyl)acetamido]pyridazin-3-yl}-N-(3,4-difluorophenyl)acetamide], on human P2X4, the “Human P2X4 HEK Cells” value was found to be 91% and the IC50 was 465 nM.
Turning to `CC(=O)N(c1ccc(F)c(F)c1)c1cc(NC(=O)Cc2cccc(F)c2Cl)cnn1` [Example 201, N-{5-[2-(2-chloro-3-fluorophenyl)acetamido]pyridazin-3-yl}-N-(3,4-difluorophenyl)acetamide], on human P2X4, the “Human P2X4 HEK Cells” value was 89% and the IC50 is 510 nM.
For the compound `CC(=O)N(c1ccc(F)c(F)c1)c1cc(NC(=O)Cc2ccc(F)cc2Cl)cnn1` [Example 202, N-{5-[2-(2-chloro-4-fluorophenyl)acetamido]pyridazin-3-yl}-N-(3,4-difluorophenyl)acetamide], at human P2X4, the “Human P2X4 HEK Cells” value amounted to 94% and the IC50 amounted to 557 nM.
The corresponding values for `CC(=O)N(c1ccc(F)c(F)c1)c1cc(NC(=O)Cc2c(F)cccc2Cl)cnn1` [Example 203, N-{5-[2-(2-chloro-6-fluorophenyl)acetamido]pyridazin-3-yl}-N-(3,4-difluorophenyl)acetamide] are 86% and 737 nM.
Turning to `CC(=O)N(c1cc(F)cc(F)c1)c1cc(NC(=O)Cc2c(Cl)cccc2Cl)cnn1` [Example 204, N-{5-[2-(2,6-dichlorophenyl)acetamido]pyridazin-3-yl}-N-(3,5-difluorophenyl)acetamide], on human P2X4, the “Human P2X4 HEK Cells” value came out at 95% and the IC50 stood at 383 nM.
The corresponding values for `CC(=O)N(c1cc(F)cc(F)c1)c1cc(NC(=O)Cc2ccccc2Cl)cnn1` [Example 205, N-{5-[2-(2-chlorophenyl)acetamido]pyridazin-3-yl}-N-(3,5-difluorophenyl)acetamide] are 93% and 433 nM.
`CC(=O)N(c1cc(F)cc(F)c1)c1cc(NC(=O)Cc2cccc(F)c2Cl)cnn1` [Example 206, N-{5-[2-(2-chloro-3-fluorophenyl)acetamido]pyridazin-3-yl}-N-(3,5-difluorophenyl)acetamide]: at human P2X4, the “Human P2X4 HEK Cells” value is listed as 93% and the IC50 stood at 449 nM.
Turning to `CC(=O)N(c1cc(F)cc(F)c1)c1cc(NC(=O)Cc2ccc(F)cc2Cl)cnn1` [Example 207, N-{5-[2-(2-chloro-4-fluorophenyl)acetamido]pyridazin-3-yl}-N-(3,5-difluorophenyl)acetamide], at human P2X4, the “Human P2X4 HEK Cells” value is given as 96% and the IC50 came out at 477 nM.
With `CC(=O)N(c1cc(F)cc(F)c1)c1cc(NC(=O)Cc2c(F)cccc2Cl)cnn1` [Example 208, N-{5-[2-(2-chloro-6-fluorophenyl)acetamido]pyridazin-3-yl}-N-(3,5-difluorophenyl)acetamide], at human P2X4, the “Human P2X4 HEK Cells” value was determined as 91% and the IC50 stood at 669 nM.
